Experimental data taken from patent US20210371413A1, “POLYCYCLIC AMIDES AS CYTOTOXIC AGENTS” (FEMTOGENIX LIMITED, priority 2018, published 2021).

Tests used:
[1] = test system: 5′-[…]-3′ (poly GC) DNA duplex; experiment: FRET DNA melting, poly GC duplex; format: binding; conditions: FRET melting, FIG. 2 bottom panel (poly GC duplex)
Procedure: (§1) FRET DNA melting studies were undertaken on 15 and 16 using two fluorescently labelled sequences. The sequences (FIG. 1) were designed to represent poly AT and poly GC sequences.
(§2) The short duplexes used in this FRET study are relatively unstable in the duplex form with a melting temperature below 30° C. so that, in the absence of ligand, a large part of the melting occurs below the starting temperature of the experiment. However, it can be observed that 15 stabilizes the duplex form, producing increases in melting temperature with ΔTm values of […] for 5′-AAAAAAAGAAAAAATIT-3′ (FIG. 2, top panel), and ˜25° C. (FIG. 2, bottom panel).
(§3) Oligonucleotides were obtained from ATDbio (Southampton, UK) in lyophilised form. […]
(§4) The reaction mixture was comprised of 4 μL of 250 mM phosphate buffer (final concentration of 50 mM), 4 μL flourophor and 4 μL quencher molecule of the appropriate oligonucleotide for a final concentration of 0.2 μM, 4 μL 5 M sodium chloride (final concentration of 1 M NaCl), and 4 μL of distilled H2O. […] This mixture was analysed without prior annealing.
(§5) Fluorescence melting profiles were measured using a Roche LightCycler using a total reaction volume of 20 μL. […] Annealing steps and melting steps were all recorded and changes in fluorescence were measured at 520 nm. […]

DS3 DNA fragment = experiment: DNA footprinting, DS3 DNA fragment; format: binding; conditions: DS3 DNA sequence
Procedure: The DNA sequence selectivity profile of the molecules was investigated using a modification of the previously established DNA footprinting assay. Following an overnight incubation of the ligand-DNA complexes, the mixture was mixed with strand separation buffer containing 10 mM EDTA, 10 mM NaOH, 0.1% bromophenol blue, 80% formamide and incubated at 100° C. for 3 min. The mixture was then immediately cooled on ice and run on an 8% denaturing gel.
The preparation of the DS3 DNA fragment (FIG. 5) and the “D” DNA fragment (FIG. 6) has been previously described. Briefly, the sequence which had been cloned into the BamHI site of pUC18 was obtained by cutting with HindIII and EcoRI. Radiolabelled DNA fragments were prepared by filling in the 3′-end of the HindIII site with [α-^32P]dATP using Klenow DNA polymerase (exo-).
The radiolabelled DNA fragment was separated from the remainder of the plasmid DNA on a 6% non-denaturing polyacrylamide gel. The gel (20 cm long, 0.3 mm thick) was run at 400 V in 1×TBE running buffer for about 1-2 h, until the bromophenol blue had run most of the way down the gel. The glass plates were separated and the position of the labelled DNA fragment was established by short (1 min) exposure to an X-ray film. The relevant band was then cut from the gel and the radiolabelled DNA eluted by adding 300 μL 10 mM Tris-HCl, pH 7.5 containing 0.1 mM EDTA and gently agitating overnight at room temperature. The eluted DNA was finally precipitated with ethanol and re-suspended in a suitable volume of 10 mM Tris-HCl, pH 7.5 containing 0.1 mM EDTA buffer so as to give at least 10 counts per second/μL on a hand-held Geiger counter. […]
Footprinting reactions were performed as previously described using the DNA fragments DS3, which contains tracts of AT/GC bases; and using the “D” DNA fragments which represents a random DNA sequence. […] After gel purification, the radiolabelled DNA was dissolved in 10 mM Tris-HCl pH 7.5 containing 0.1 mM EDTA, at a concentration of about 10 c.p.s per μL as determined on a hand held Geiger counter. […]

[2] = test system: 5′-AAAAAAAGAAAAAATIT-3′ (poly AT) DNA duplex; experiment: FRET DNA melting, poly AT duplex; format: binding; conditions: fragments of 15, FIG. 3; duplex not specified
Procedure: as §1, §2, §3, §4, §5

calf thymus DNA = conditions: cited from earlier work

Structure (SMILES): COc1cc2c(cc1OCCCC(=O)Nc1cc(C(=O)Nc3ccc(-c4cc(C(=O)Nc5ccc(N)cc5)n(C)c4)cc3)n(C)c1)N=C[C@@H]1CCCCN1C2=O [Compound 15, (S)—N-(4-aminophenyl)-4-(4-(4-(4-((2-methoxy-12-oxo-6a,7,8,9,10,12-hexahydrobenzo[e]pyrido[1,2-a][1,4]diazepin-3-yl)oxy)butan-amido)-1-methyl-1H-pyrrole-2-carboxamido)phenyl)-1-methyl-1H-pyrrole-2-carboxamide]
- ΔTm (increase in melting temperature) [1]: ~25 °C
- DNA binding pattern (footprint) (DS3 DNA fragment): bind to tracts of DNA where a GC base is present

Structure (SMILES): COc1cc2c(cc1O)N=C[C@@H]1CCCCN1C2=O [Compound 28, (S)-3-Hydroxy-2-methoxy-7,8,9,10-tetrahydrobenzo[e]-pyrido[1,2-a][1,4]diazepin-12(6aH)-one]
- DNA stabilisation (FRET denaturation) [2]: failed to stabilise DNA

Structure (SMILES): Cn1cc(N)cc1C(=O)Nc1ccc(-c2cc(C(=O)Nc3ccc(N)cc3)n(C)c2)cc1 [Compound 32, 4-Amino-N-(4-(5-((4-aminophenyl)carbamoyl)-1-methyl-1H-pyrrol-3-yl)phenyl)-1-methyl-1H-pyrrole-2-carboxamide]
- DNA stabilisation (FRET denaturation) [2]: failed to stabilise DNA

Structure (SMILES): Cc1ccc2c(c1O)NC(O)C1CC(/C=C/C(N)=O)=CN1C2=O (centres unmarked) [anthramycin]
- thermal stabilization (ΔTm) (calf thymus DNA): 13.1 °C
